Experimental data as given in patent US5656600A, “α-ketoamide derivatives as inhibitors of thrombosis” (Corvas International, Inc., priority 1993, dated 1997).

Tests used:
[1] = molecular target: thrombin (Homo sapiens, UniProt P00734); conditions: literature values; read-out: Ki (thrombin), reported; cited from earlier work
[2] = system: FeCl3 Model of Thrombosis in Rats; test: Rat model of FeCl3-induced platelet-dependent arterial thrombosis; type: in vivo; conditions: for Incidence of Occlusion: occluded/total animals
Description: Kurz, K. D., Main, B. W., and Sandusky, G. E., Thromb. Res., 60:269-280 (1990). In this model a platelet-rich, occlusive thrombus is formed in a segment of the rat carotid artery treated with a fresh solution of FeCl3 absorbed to a piece of filter paper. The FeCl3 is thought to diffuse into the treated segment of artery and causes de-endothelialization resulting in thrombus formation. The effect of a test compound on the incidence of occlusive thrombus formation following the application of the FeCl3 is monitored by ultrasonic flowtometry and is used as the primary end point. The use of flowtometry is a modification of the original procedure in which thermal detection of clot formation was employed. Kurz, K. D., Main, B. W., and Sandusky, G. E., Thromb. Res., 60:269-280 (1990).
Male Harlan Sprague Sawley rats (420-450 g) were acclimated at least 72 hours prior to use and fasted for 12 hours prior to surgery with free access to water. The animals were prepared, anesthetized with Nembutal with catheters for blood pressure monitoring, drug and anesthesia delivery being implanted as described above. The left carotid artery was exposed and isolated by making a midline cervical incision followed by blunt dissection and spreading techniques to separate a 2 cm segment of the vessel from the carotid sheath. A silk suture is inserted under the proximal and distal ends of the isolated vessel to provide clearance for the placement of a ultrasonic flow probe (Transonic) around the proximal end of the vessel. The probe is then secured with a stationary arm.
The test compounds were administered as described above after placement of the flow probe and stabilization of the preparation for a period of 60 minutes prior to the thrombogenic stimulus. At t=0, a 3 mm diameter piece of filter paper (Whatman #3) soaked with 10 μL of a 35% solution of fresh FeCl3 (in water) was applied the segment of isolated carotid artery distal to the flow probe. Blood pressure, blood flow, heart rate, and respiration were monitored for 60 minutes.
The incidence of occlusion (defined as the attainment of zero blood flow) was recorded as the primary end point. Following the 60 minute observation period the flow probe was removed and the area cleared of all excess fluid. The distal and proximal sutures were tied off and arterial clamps placed on the far proximal and distal ends of the segment. The isolated segment was cut out, blotted dry on filter paper and weighed. The segment was re-weighed following removal of the clot and the difference recorded as total % clot (see above). Weights were recorded on only those segments which had detectable thrombus. Following the procedure the animals were euthanized as described above.

[3] = molecular target: α-thrombin (Homo sapiens, UniProt P00734); test: Thrombin-induced clotting of purified fibrinogen; type: biochemical; conditions: preincubation with α-thrombin up to 60 minutes before fibrinogen
Method: Inhibition is reflected as an increase in the relative clotting time which is the ratio of the […]. The control clotting time in this assay is 16.2±0.78 sec.
The clotting time of fibrinogen following the addition of the thrombin/inhibitor complex was measured optically using the Coag-A-Mate XC automated coagulometer (General Diagnostics, Organon Technica, Oklahoma City, OK). […] Haemostas., 69:130-134 (1993).

[4] = system: pooled normal human plasma; test: Ex vivo coagulation assay (APTT); conditions: normal citrated human plasma; FIG. 3
Method: Fresh frozen pooled normal human plasma was obtained from George King Biomedical, Overland Park, KA. Measurements APTT was made using the Coag-A-Mate RA4 automated coagulometer (General Diagnostics, Organon Technica, Oklahoma City, OK) using the Automated APTT reagent (Organon Technica, Durham, NC) as the initiator of clotting according to the manufacturers instructions. The assay was conducted by making a series of dilutions of the test compounds in rapidly thawed plasma followed by adding 200 μL to the wells of the assay carousel.

[5] = system: washed human platelets; test: Thrombin-induced aggregation in washed human platelets; type: cell-based
Method: Washed human platelets were prepared from freshly isolated venous blood obtained from normal, healthy volunteers who had not taken any medication which might affect platelet function, according to the procedure of Connolly, T. M. et al., J. Biol. Chem., 267:6893 (1992). Inhibitors, were added in a volume of 20 μL to 350 μL of prewarmed washed platelets in a siliconized glass cuvette (Chronolog Corp., Havertown, PA) followed by 10 μL of 0.25 M CaCl2. The rate and extent of aggregation were measured for 5-15 minutes by the change in light transmission in a stirred cuvette, following the addition of 20 μL of […] (final concentration 2 nM), using a Chronolog Whole Blood Aggregometer equipped with the Aggro/Link data acquisition system (Chronolog Corp., Hayertown, PA). The extent of inhibition was determined by measuring the change in the amplitude (extent) of the aggregation response compared to the control (uninhibited) response over the 1 minute period following the addition of thrombin.

[6] = 0.1 mg/kg i.v. bolus + 40 μg/kg/min i.v. infusion

(D--Phe)--Pro--Arg--Pro--(Gly4 --Asn--Gly--Asp--Phe--Glu--Glu--IIe--Pro--Glu--Glu--Tyr--Leu--OH [Compound 25]
Ki [1]: 2.56 nM | % Clot ([2]; 0.1 mg/kg i.v. bolus + 5 μg/kg/min i.v. infusion, mean ± S.E.M., segments with detectable thrombus): 70.1 ± 5.5% | Incidence of Occlusion ([2]; 0.1 mg/kg i.v. bolus + 5 μg/kg/min i.v. infusion): 3/3 | % Clot ([2]; 0.1 mg/kg i.v. bolus + 10 μg/kg/min i.v. infusion, mean ± S.E.M., segments with detectable thrombus): 59.42 ± 4.34% | Incidence of Occlusion ([2]; 0.1 mg/kg i.v. bolus + 10 μg/kg/min i.v. infusion): 5/6 | % Clot ([2]; 0.1 mg/kg i.v. bolus + 20 μg/kg/min i.v. infusion, mean ± S.E.M., segments with detectable thrombus): 45.3 ± 11.63% | Incidence of Occlusion ([2]; 0.1 mg/kg i.v. bolus + 20 μg/kg/min i.v. infusion): 5/6 | % Clot [2, 6]: 0% | Incidence of Occlusion [2, 6]: 0/6 | proteolytic inactivation by thrombin upon prolonged incubation [3]: sensitive to proteolytic degradation with re-emergence of thrombin activity | prolongation of activated partial thromboplastin time (APTT) [4]: prolonged the APTT in a dose dependent manner | persistence of inhibition of aggregation over the 15 minute course of the assay ([5]; 20nM (compound 8), same or higher concentrations (Hirulog-1), FIG. 4): did not cause sustained inhibition of the aggregation response | IC50 ([5]; α-thrombin 2 nM, extent of aggregation over 1 minute after thrombin, mean ± standard deviation, three determinations): 16 ± 3 nM
